Results taken from ChEMBL document CHEMBL1135204, “Synthesis and muscarinic M2 subtype antagonistic activity of unnatural ent-himbacine and an enantiomeric pair of (2'S,6'R)-diepihimbacine” (Bioorg Med Chem Lett, 2002).

Assays:
[1] = target: T1, Muscarinic acetylcholine receptor M2 (Rattus norvegicus, UniProt P10980); assay: Binding affinity against the muscarinic M2 (brainstem) subtype was evaluated using [3H]quinuclidinyl benzilate; format: tissue-based
T1 sequence (P10980 whole entry): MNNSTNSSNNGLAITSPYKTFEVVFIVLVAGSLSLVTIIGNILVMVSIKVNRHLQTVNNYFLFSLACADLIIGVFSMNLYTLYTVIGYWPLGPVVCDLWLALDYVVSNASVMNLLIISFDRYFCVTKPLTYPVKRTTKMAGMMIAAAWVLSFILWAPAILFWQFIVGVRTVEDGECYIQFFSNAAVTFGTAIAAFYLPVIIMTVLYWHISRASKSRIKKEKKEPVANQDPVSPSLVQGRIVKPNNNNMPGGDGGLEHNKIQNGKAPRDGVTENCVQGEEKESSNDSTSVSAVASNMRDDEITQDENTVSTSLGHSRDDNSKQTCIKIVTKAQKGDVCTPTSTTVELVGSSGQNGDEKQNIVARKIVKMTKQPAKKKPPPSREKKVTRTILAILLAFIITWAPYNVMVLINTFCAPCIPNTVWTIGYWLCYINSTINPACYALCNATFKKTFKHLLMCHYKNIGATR

[2] = target: T2, Muscarinic acetylcholine receptor M1 (Rattus norvegicus, UniProt P08482); assay: Binding affinity against the muscarinic M1 (cortex) subtype was evaluated using [3H]pirenzepine
T2 sequence (P08482 whole entry): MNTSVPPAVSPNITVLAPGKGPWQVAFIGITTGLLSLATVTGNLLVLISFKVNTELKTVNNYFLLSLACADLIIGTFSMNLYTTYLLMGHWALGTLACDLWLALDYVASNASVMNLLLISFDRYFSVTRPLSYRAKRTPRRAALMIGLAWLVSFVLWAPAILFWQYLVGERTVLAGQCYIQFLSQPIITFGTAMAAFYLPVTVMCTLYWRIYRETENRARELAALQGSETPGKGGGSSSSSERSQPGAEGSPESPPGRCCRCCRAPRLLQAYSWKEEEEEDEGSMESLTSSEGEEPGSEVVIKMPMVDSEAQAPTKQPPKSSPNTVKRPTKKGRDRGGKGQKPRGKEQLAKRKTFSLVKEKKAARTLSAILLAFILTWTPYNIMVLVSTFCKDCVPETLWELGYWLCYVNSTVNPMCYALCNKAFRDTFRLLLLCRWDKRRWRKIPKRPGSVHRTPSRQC

| SMILES | Ki [1] [nM] | Ki [2] [nM] |
| --- | --- | --- |
| C[C@@H]1OC(=O)[C@H]2C[C@H]3CCCC[C@@H]3[C@@H](/C=C/[C@@H]3CCC[C@@H](C)N3C)[C@@H]12 | 200 | 316 |
| C[C@@H]1OC(=O)[C@H]2C[C@H]3CCCC[C@@H]3[C@@H](/C=C/[C@H]3CCC[C@H](C)N3C)[C@@H]12 [HIMBACINE] | 10 | 63.1 |
| C[C@@H]1CCC[C@@H](/C=C/[C@H]2[C@@H]3CCCC[C@H]3C[C@H]3C(=O)O[C@H](C)[C@@H]23)N1C (single isomer, unassigned; ent-1) | 794 | 1000 |
| C[C@H]1OC(=O)[C@@H]2C[C@@H]3CCCC[C@H]3[C@H](/C=C/[C@H]3CCC[C@H](C)N3C)[C@H]12 | 200 | 316 |
